In ChEMBL document CHEMBL1135412, “Synthesis and in vitro evaluation of quaternary ammonium derivatives of chlorambucil and melphalan, anticancer drugs designed for the chemotherapy of chondrosarcoma” (J Med Chem, 2002):

Key:
[1] = In vitro cytotoxicity in chondrosarcoma cell line (H-EMC-SS) by Alamar blue assay; type: functional; conditions: Homo sapiens
[2] = In vitro cytotoxicity in chondrosarcoma cell line (H-EMC-SS) by Hoechst 33342 DNA Fluorometric assay; type: functional; conditions: Homo sapiens
[3] = tested on: B16; experiment: In vitro cytotoxic activity against B16, by colony forming assay; type: functional, cell-based; conditions: Mus musculus
[4] = tested on: M4Beu cell line; experiment: Comparative cellular uptake study performed on M4 Beu (melanoma cell line); type: functional, Homo sapiens
[5] = Partition coefficient (logD) (octanol/phosphate buffer); type: physicochemical
[6] = tested on: MCF7S; experiment: In vitro cytotoxic activity against MCF7, by colony forming assay; type: functional, cell-based; conditions: Homo sapiens
[7] = Glutathione-s-transferase activity of the compound, expressed as percentage of control.; type: functional
[8] = Alkylating activity of compound was determined by the NBP assay at 570 nm.; type: functional
[9] = Comparative cellular uptake study performed on H-EMC-SS (chondrosarcoma cell line); type: functional, Homo sapiens
[10] = tested on: M4Beu cell line; experiment: In vitro cytotoxic activity against M4 Beu cells, by colony forming assay; type: functional, cell-based; conditions: Homo sapiens
[11] = In vitro cytotoxic activity against M4 Dau, by colony forming assay; type: functional
[12] = tested on: MCF7S; experiment: In vitro cytotoxicity activity against MCF-7; type: functional, cell-based; conditions: Homo sapiens
[13] = tested on: M4Beu cell line; experiment: In vitro cytotoxicity activity against M4 Beu, by colony forming assay; type: functional, cell-based; conditions: Homo sapiens
[14] = tested on: B16; experiment: In vitro cytotoxicity activity against B16, by colony forming assay; type: functional, cell-based; conditions: Mus musculus
[15] = In vitro cytotoxicity activity against M4 Dau by colony forming assay; type: functional
[16] = tested on: MCF7S; experiment: In vitro cytotoxicity activity against MCF7, by colony forming assay; type: functional, cell-based; conditions: Homo sapiens
[17] = In vitro cytotoxicity activity against M4 Dau, by colony forming assay; type: functional
[18] = tested on: B16; experiment: In vitro cytotoxicity activity against B16 cells, by colony forming assay; type: functional, cell-based; conditions: Mus musculus

C[N+](C)(C)CCCNC(=O)CCCc1ccc(N(CCCl)CCCl)cc1.[I-]
CC50 [1]: 700 nM | CC50 [2]: 600 nM | IC50 [3]: 8600 nM | Cellular uptake [4]: 16.7 pmol/µL | logD [5]: 0.32 | IC50 [6]: 1200 nM | Glutathione-S-transferase activity (% of control) [7]: 55.4% | Alkylating activity [8]: 40.4 10e3·k | Cellular uptake [9]: 2.97 pmol/µL | IC50 [10]: 5100 nM | IC50 [11]: 1300 nM

N[C@@H](Cc1ccc(N(CCCl)CCCl)cc1)C(=O)O [MELPHALAN]
CC50 [1]: 1600 nM | IC50 [12]: 300 nM | IC50 [13]: 1200 nM | CC50 [2]: 900 nM | IC50 [14]: 2200 nM | Cellular uptake [4]: 21.9 pmol/µL | logD [5]: 0.11 | Glutathione-S-transferase activity (% of control) [7]: 85.3% | Alkylating activity [8]: 10.3 10e3·k | IC50 [15]: 500 nM | Cellular uptake [9]: 2.88 pmol/µL

C[N+](C)(C)CCCNC(=O)C(N)Cc1ccc(N(CCCl)CCCl)cc1.[Cl-] (centres undefined)
CC50 [1]: 1800 nM | IC50 [13]: 14400 nM | CC50 [2]: 1200 nM | IC50 [14]: 19500 nM | Cellular uptake [4]: 6.82 pmol/µL | logD [5]: -1.12 | Glutathione-S-transferase activity (% of control) [7]: 79% | Alkylating activity [8]: 15.7 10e3·k | Cellular uptake [9]: 1.54 pmol/µL | IC50 [16]: 900 nM | IC50 [17]: 3300 nM

O=C(O)CCCc1ccc(N(CCCl)CCCl)cc1 [CHLORAMBUCIL]
CC50 [1]: 3500 nM | CC50 [2]: 2700 nM | Cellular uptake [4]: 18.4 pmol/µL | logD ([5]; octanol/water): 0.75 | IC50 [6]: 1700 nM | Glutathione-S-transferase activity (% of control) [7]: 60.4% | Alkylating activity [8]: 30.2 10e3·k | Cellular uptake [9]: 2.73 pmol/µL | IC50 [17]: 1500 nM | IC50 [18]: 5100 nM | IC50 [10]: 5100 nM
